Data reported in patent US9650395B2, “Antibacterial compounds and methods for use” (PTC Therapeutics, Inc., priority 2011, dated 2017).
Values after ≈ are worked out from the molar mass of the structure shown. Where two headings read alike, the source gives them in different places.

Experiments:
[1] = system: Moraxella catarrhalis (M. catarrhalis) 25238; assay: Antibacterial activity, MIC, M. catarrhalis 25238; assay type: cell-based; conditions: Moraxella catarrhalis, M. catarrhalis 25238; read-out: MIC 25238
[2] = system: E. coli ELZ4251 (MDR clinical isolate); assay: Antibacterial activity, MIC, MDR E. coli ELZ4251; assay type: cell-based, Escherichia coli; conditions: Escherichia coli, E. coli ELZ4251, MDR clinical isolate; read-out: MIC ELZ4251
[3] = system: E. coli ELZ4000 (MDR clinical isolate); assay: Antibacterial activity, MIC, MDR E. coli ELZ4000; assay type: cell-based, Escherichia coli; conditions: Escherichia coli; E. coli ELZ4000, MDR clinical isolate; read-out: MIC ELZ4000
[4] = system: super sensitive Gram-negative Escherichia coli (E. coli) BAS849; assay: Antibacterial activity, microbroth dilution MIC, E. coli BAS849; assay type: cell-based; conditions: Escherichia coli, read-out: MIC, BAS849
[5] = system: quinolone resistant E. coli LZ3111; assay: Antibacterial activity, MIC, quinolone resistant E. coli LZ3111; assay type: cell-based, Escherichia coli; conditions: Escherichia coli, read-out: MIC, LZ3111
Source text: (§1) The antibacterial activity from a microbroth dilution method may be presented as the minimum inhibitory concentration (MIC in […]). The MIC value is the lowest concentration of a drug which prevents macroscopically visible bacterial growth under test conditions.
Mutations in these regions are known to confer a high level resistance to the quinolone class of antibiotics.

[6] = system: Gram-positive Staphylococcus aureus (S. aureus) 29213; assay: Antibacterial activity, microbroth dilution MIC, S. aureus 29213; assay type: cell-based; conditions: Staphylococcus aureus; S. aureus 29213, microbroth dilution; read-out: MIC, 29213
[7] = system: Neisseria meningitidis (N. meningitidis) 13090; assay: Antibacterial activity, MIC, N. meningitidis 13090; assay type: cell-based; conditions: Neisseria meningitidis; N. meningitidis 13090; read-out: MIC 13090
[8] = system: Haemophilus influenzae (H. influenzae) 49247; assay: Antibacterial activity, MIC, H. influenzae 49247; assay type: cell-based; conditions: Haemophilus influenzae; H. influenzae 49247; read-out: MIC 49247
Source text: as §1
Antibacterial activity of test compounds against the Gram-negative bacteria Haemophilus influenzae (H. influenzae) 49247, Moraxella catarrhalis (M. catarrhalis) 25238 and Neisseria meningitidis (N. meningitidis) 13090 is shown in Table 6.

[9] = system: control Gram-negative E. coli 25922 strain; assay: Antibacterial activity, microbroth dilution MIC, E. coli 25922; assay type: cell-based, Escherichia coli; conditions: Escherichia coli; E. coli 25922, microbroth dilution; read-out: MIC, 25922
[10] = E. coli BAS849, microbroth dilution

SMILES	MIC [1]	MIC [2]	MIC [3]	MIC [4, 10]	MIC [5]	MIC [6]	MIC [7]	MIC [8]	MIC [9]	MIC [4]
CCc1cc(C(=O)O)c(=O)[nH]c1-c1ccc(N2C[C@@H](N)[C@H](OC)C2)cc1.Cl [Cpd 134, 6-{4-[(3R,4R)-3-amino-4-methoxypyrrolidin-1-yl]phenyl}-5-ethyl-2-oxo-1,2-dihydropyridine-3-carboxylic acid hydrochloride]	3.5 to 12.5 µg/mL	12.5 to 150 µg/mL	12.5 to 150 µg/mL	< 1 µg/mL	12.5 to 150 µg/mL	12.5 to 150 µg/mL	< 1 µg/mL	< 1 µg/mL	3.5 to 12.5 µg/mL	–
CCc1cc(C(=O)O)c(=O)[nH]c1-c1ccc(N(C)CCO)cc1 [Cpd 17, 5-ethyl-6-{4-[(2-hydroxyethyl)(methyl)amino]phenyl}-2-oxo-1,2-dihydropyridine-3-carboxylic acid]	< 1 µg/mL	12.5 to 150 µg/mL (≈ 39.5 to 474 µM)	12.5 to 150 µg/mL (≈ 39.5 to 474 µM)	< 1 µg/mL	12.5 to 150 µg/mL (≈ 39.5 to 474 µM)	12.5 to 150 µg/mL (≈ 39.5 to 474 µM)	< 1 µg/mL	< 1 µg/mL	3.5 to 12.5 µg/mL (≈ 11.1 to 39.5 µM)	–
CCc1c(-c2ccc(N3CCNCC3)cc2)[nH]c(=O)c(C(=O)O)c1O.O=C(O)C(F)(F)F [Cpd 105, 5-ethyl-4-hydroxy-2-oxo-6-[4-(piperazin-1-yl)phenyl]-1,2-dihydropyridine-3-carboxylic acid trifluoroacetate]	3.5 to 12.5 µg/mL	12.5 to 150 µg/mL	12.5 to 150 µg/mL	–	12.5 to 150 µg/mL	12.5 to 150 µg/mL	1 to 3.5 µg/mL	3.5 to 12.5 µg/mL	3.5 to 12.5 µg/mL	1 to 3.5 µg/mL
CCc1c(-c2ccc(N(C)C)s2)[nH]c(=O)c(C(=O)O)c1O [Cpd 306, 6-[5-(dimethylamino)thiophen-2-yl]-5-ethyl-4-hydroxy-2-oxo-1,2-dihydropyridine-3-carboxylic acid]	< 1 µg/mL	12.5 to 150 µg/mL (≈ 40.5 to 486 µM)	12.5 to 150 µg/mL (≈ 40.5 to 486 µM)	< 1 µg/mL	12.5 to 150 µg/mL (≈ 40.5 to 486 µM)	3.5 to 12.5 µg/mL (≈ 11.4 to 40.5 µM)	< 1 µg/mL	< 1 µg/mL	3.5 to 12.5 µg/mL (≈ 11.4 to 40.5 µM)	–
CCc1cc(C(=O)O)c(=O)[nH]c1-c1ccc(N2CC[C@H](N)C2)cc1.Cl [Cpd 132, 6-{4-[(3S)-3-aminopyrrolidin-1-yl]phenyl}-5-ethyl-2-oxo-1,2-dihydropyridine-3-carboxylic acid hydrochloride]	< 1 µg/mL	12.5 to 150 µg/mL	12.5 to 150 µg/mL	< 1 µg/mL	12.5 to 150 µg/mL	3.5 to 12.5 µg/mL	< 1 µg/mL	< 1 µg/mL	1 to 3.5 µg/mL	–
CN(C)c1ccc(-c2[nH]c(=O)c(C(=O)O)c(O)c2Cc2ccccc2)cc1 [Cpd 2, 5-benzyl-6-[4-(dimethylamino)phenyl]-4-hydroxy-2-oxo-1,2-dihydropyridine-3-carboxylic acid]	< 1 µg/mL	–	–	12.5 to 150 µg/mL (≈ 34.3 to 412 µM)	–	3.5 to 12.5 µg/mL (≈ 9.6 to 34.3 µM)	< 1 µg/mL	< 1 µg/mL	12.5 to 150 µg/mL (≈ 34.3 to 412 µM)	–
CCCc1c(-c2ccc(N(C)C)cc2)[nH]c(=O)c(C(=O)O)c1O [Cpd 9, 6-[4-(dimethylamino)phenyl]-4-hydroxy-2-oxo-5-propyl-1,2-dihydropyridine-3-carboxylic acid]	< 1 µg/mL	–	–	< 1 µg/mL	–	1 to 3.5 µg/mL (≈ 3.16 to 11.1 µM)	< 1 µg/mL	< 1 µg/mL	12.5 to 150 µg/mL (≈ 39.5 to 474 µM)	–
CCc1cc(C(=O)O)c(=O)[nH]c1-c1ccc(N2CC3CC2CN3)cc1.O=C(O)C(F)(F)F (stereo not drawn) [Cpd 138, 6-[4-(2,5-diazabicyclo[2.2.1]hept-2-yl)phenyl]-5-ethyl-2-oxo-1,2-dihydropyridine-3-carboxylic acid trifluoroacetate]	< 1 µg/mL	–	–	–	–	12.5 to 150 µg/mL	12.5 to 150 µg/mL	12.5 to 150 µg/mL	12.5 to 150 µg/mL	12.5 to 150 µg/mL
CCc1c(-c2ccc(N(CC)CC)cc2)[nH]c(=O)c(C(=O)O)c1O [Cpd 98, 6-[4-(diethylamino)phenyl]-5-ethyl-4-hydroxy-2-oxo-1,2-dihydropyridine-3-carboxylic acid]	3.5 to 12.5 µg/mL (≈ 10.6 to 37.8 µM)	–	–	< 1 µg/mL	–	3.5 to 12.5 µg/mL (≈ 10.6 to 37.8 µM)	< 1 µg/mL	1 to 3.5 µg/mL (≈ 3.03 to 10.6 µM)	12.5 to 150 µg/mL (≈ 37.8 to 454 µM)	–
C=CCN(CC=C)c1ccc(-c2[nH]c(=O)c(C(=O)O)c(O)c2CC)cc1 [Cpd 300, 6-{4-[di(prop-2-en-1-yl)amino]phenyl}-5-ethyl-4-hydroxy-2-oxo-1,2-dihydropyridine-3-carboxylic acid]	< 1 µg/mL	12.5 to 150 µg/mL (≈ 35.3 to 423 µM)	12.5 to 150 µg/mL (≈ 35.3 to 423 µM)	1 to 3.5 µg/mL (≈ 2.82 to 9.88 µM)	12.5 to 150 µg/mL (≈ 35.3 to 423 µM)	1 to 3.5 µg/mL (≈ 2.82 to 9.88 µM)	< 1 µg/mL	12.5 to 150 µg/mL (≈ 35.3 to 423 µM)	12.5 to 150 µg/mL (≈ 35.3 to 423 µM)	–
CN(C)c1ccc(-c2[nH]c(=O)c(C(=O)O)cc2C#N)cc1 [Cpd 14, 5-cyano-6-[4-(dimethylamino)phenyl]-2-oxo-1,2-dihydropyridine-3-carboxylic acid]	12.5 to 150 µg/mL (≈ 44.1 to 529 µM)	–	–	12.5 to 150 µg/mL (≈ 44.1 to 529 µM)	–	12.5 to 150 µg/mL (≈ 44.1 to 529 µM)	12.5 to 150 µg/mL (≈ 44.1 to 529 µM)	< 1 µg/mL	12.5 to 150 µg/mL (≈ 44.1 to 529 µM)	–
CCc1cc(C(=O)O)c(=O)[nH]c1-c1ccc(N2CC(O)C2)cc1 [Cpd 121, 5-ethyl-6-[4-(3-hydroxyazetidin-1-yl)phenyl]-2-oxo-1,2-dihydropyridine-3-carboxylic acid]	< 1 µg/mL	12.5 to 150 µg/mL (≈ 39.8 to 477 µM)	12.5 to 150 µg/mL (≈ 39.8 to 477 µM)	< 1 µg/mL	12.5 to 150 µg/mL (≈ 39.8 to 477 µM)	12.5 to 150 µg/mL (≈ 39.8 to 477 µM)	< 1 µg/mL	< 1 µg/mL	3.5 to 12.5 µg/mL (≈ 11.1 to 39.8 µM)	–
CCc1cc(C(=O)O)c(=O)[nH]c1-c1ccc(N2CCCC2=O)cc1 [Cpd 114, 5-ethyl-2-oxo-6-[4-(2-oxopyrrolidin-1-yl)phenyl]-1,2-dihydropyridine-3-carboxylic acid]	< 1 µg/mL	–	–	1 to 3.5 µg/mL (≈ 3.06 to 10.7 µM)	–	12.5 to 150 µg/mL (≈ 38.3 to 460 µM)	< 1 µg/mL	< 1 µg/mL	12.5 to 150 µg/mL (≈ 38.3 to 460 µM)	–
CN(C)c1ccc(-c2[nH]c(=O)c(C(=O)O)c(O)c2C2CCCCC2)cc1 [Cpd 7, 5-cyclohexyl-6-[4-(dimethylamino)phenyl]-4-hydroxy-2-oxo-1,2-dihydropyridine-3-carboxylic acid]	< 1 µg/mL	–	–	3.5 to 12.5 µg/mL (≈ 9.82 to 35.1 µM)	–	1 to 3.5 µg/mL (≈ 2.81 to 9.82 µM)	1 to 3.5 µg/mL (≈ 2.81 to 9.82 µM)	< 1 µg/mL	12.5 to 150 µg/mL (≈ 35.1 to 421 µM)	–
CN(C)c1ccc(-c2[nH]c(=O)c(C(=O)O)cc2C(=O)O)cc1 [Cpd 11, 6-[4-(dimethylamino)phenyl]-2-oxo-1,2-dihydropyridine-3,5-dicarboxylic acid]	12.5 to 150 µg/mL (≈ 41.4 to 496 µM)	–	–	12.5 to 150 µg/mL (≈ 41.4 to 496 µM)	–	12.5 to 150 µg/mL (≈ 41.4 to 496 µM)	12.5 to 150 µg/mL (≈ 41.4 to 496 µM)	< 1 µg/mL	12.5 to 150 µg/mL (≈ 41.4 to 496 µM)	–
CCc1cc(C(=O)O)c(=O)[nH]c1-c1ccc(N2CCC[C@H]2C(F)(F)F)cc1 [Cpd 142, 5-ethyl-2-oxo-6-{4-[(2S)-2-(trifluoromethyl)pyrrolidin-1-yl]phenyl}-1,2-dihydropyridine-3-carboxylic acid]	1 to 3.5 µg/mL (≈ 2.63 to 9.2 µM)	–	–	1 to 3.5 µg/mL (≈ 2.63 to 9.2 µM)	–	12.5 to 150 µg/mL (≈ 32.9 to 394 µM)	< 1 µg/mL	3.5 to 12.5 µg/mL (≈ 9.2 to 32.9 µM)	12.5 to 150 µg/mL (≈ 32.9 to 394 µM)	–
